Data taken from PubChem BioAssay AID504672 (Sanford-Burnham Center for Chemical Genomics, 2011).
Calls of active or inactive are those of the source. Cut-off read from the data, not from the text of the source: active = IC50 below about 71 µM; inactive = the rest.

Tested on: S. cerevisiae tim10 strain, luminescence counterscreen
Assay: TIM10 strain luminescence inhibitors – S. cerevisiae, uHTS hits, counter-screen for tim23-1 inhibitor project, dose response (AID 504672);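 note: yeast grew roughly 22 hours at 25 °C before the luminescence read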

Compound | IC50
Oc1ccc(Oc2ccc(Oc3ccc(O)cc3)cc2)cc1 | 30.4 µM
CCOC(=O)c1c(-c2ccccc2)oc2ccc(O)cc12 | 10.2 µM
O=c1/c(=C/c2cccc3ccccc23)sc2ncnn12 | 16.7 µM
CCN(CC)c1ccc(/C=N/NC(=O)c2ccc3c(c2)OCCO3)cc1 | 11.5 µM
COc1ccc2c(c1)sc1nc(-c3ccccc3)cn12 | 20.5 µM
O=C1NC(=S)SC1=C1CCCCCC1 | 14.1 µM
O=C(CSc1cccs1)Nc1ccc2ccccc2c1 | 24.4 µM
O=c1c2ccccc2nc(-c2ccc([N+](=O)[O-])cc2)n1O | 4.86 µM
CCOC(=O)c1c(NC(=O)CSc2nnnn2-c2ccc(OC)cc2)sc(C)c1C | 11.6 µM
CN=c1scc(-c2cccs2)n1/N=C/c1ccc(O)c(O)c1O | 11 µM
CCCN(C(=O)c1ccc([N+](=O)[O-])c(C)c1)c1c(N)n(Cc2ccccc2)c(=O)[nH]c1=O | > 100 µM (inactive)
CC1(C)CC(n2c(NCCO)nc3c(c2=O)C2(CCCC2)Cc2ccccc2-3)CCO1 (stereo not drawn) | 12.4 µM
O=Cc1cn(CCOc2ccccc2F)c2ccccc12 | 22.3 µM
COc1ccc(-c2ccc(NC(=O)c3ccco3)cc2)nn1 | 10.5 µM
O=C(CC(=O)c1cc(Cl)ccc1O)c1ccccc1 | 11.1 µM
CC(C)OC(=O)c1cccnc1SCc1cc(=O)n2ccccc2n1 | 42.4 µM
O=C1OC(c2ccccc2)=N/C1=C\C=C\c1ccco1 | > 100 µM (inactive)
CC(C)(C)c1ccc(Oc2ccc(N)cc2)cc1 | 13.7 µM
O=C(Nc1ccccc1)C1C(c2ccccc2)C1(Cl)Cl (stereo not drawn) | 20.6 µM
Cn1c(/C(C#N)=C/c2ccncc2)nc2ccccc21 | 34.3 µM
O=Cc1cccnc1SCc1ccccc1 | 12.1 µM
CCCCc1cc(O)c(CCCC)c(O)c1 | 1.21 µM
Cc1cnc(NC(=O)c2sc(Nc3ccccc3)nc2N)o1 | 28 µM
O=C(/C=C\Nc1cccc(F)c1)c1cccs1 | 16.6 µM
CC(C)CCN1C(=O)c2cccc3c(N)ccc(c23)C1=O | 10.6 µM
O=C1c2ccccc2-c2n[nH]c3cccc1c23 | 20.2 µM

Compound | IC50
Cc1ccc(NC(=S)NC(=O)C2CC2)cc1Cl | 8.83 µM
N#C/C(=C\c1ccc(OCc2ccccc2)cc1)C(N)=O | 27.9 µM
Cc1ccc(C(=O)Nc2nc(C(C)(C)C)cs2)s1 | 20.9 µM
N#C/C(C(N)=O)=c1/ccc2c(c1)N1C3=C(CCCC3)CC3CCCCC31N=2 (stereo not drawn) | 8.55 µM
Cc1ccc2nc(-c3ccc(N)cc3)sc2c1 | 17.4 µM
O=C(Nc1nc(-c2cccs2)c(-c2ccccc2)s1)c1ccco1 | 28.6 µM
CC1=CC(C)(C)N(C(=O)c2ccc(F)cc2)c2cc3c(cc21)OCO3 | 3.84 µM
c1ccc(Nc2nc(-c3ccccc3)nc3ccccc23)cc1 | 6.7 µM
Cc1cc(C(=O)CCl)c(C)n1CCc1ccc(Cl)cc1 | 11 µM
Cc1ccc(Nc2cc(C)c3ccc(O)cc3n2)cc1C | 27.2 µM
Cc1ccc2nc(NC(=O)COC(=O)c3cccnc3)sc2c1 | 6.25 µM
O=C(Nc1ccc(OC(F)(F)F)cc1)N1CCN(c2ccnc3cc(Cl)ccc23)CC1 | 10.2 µM
O=C(Nc1ccc2oc(-c3ccccc3)nc2c1)c1cccnc1 | 10.8 µM
Cn1c(C=O)c(C#Cc2ccccc2)c2ccccc21 | 5.53 µM
O=C(/C(=C/O)N=Nc1ccccc1)c1ccco1 | 11 µM
COc1ccc(C(=O)COC(=O)c2cncc(Br)c2)cc1 | 15.5 µM
CCOC(=O)c1c(C)oc2c(F)c(F)c(F)c(F)c2c1=O | 26.8 µM
Oc1ccc2ccccc2c1/C=N/c1nccs1 | 8.43 µM
O=C(N/N=C/c1ccco1)c1cc2ccccc2o1 | 22.2 µM
CCOC(=O)c1c(C)oc2c1c(C(c1cccnc1)N1CCCCC1)c(O)c1ccccc12 (stereo not drawn) | 36.1 µM
O=C(Nc1ccc2nc(-c3ccc(Br)o3)[nH]c2c1)c1ccco1 | 6.75 µM
O=C(N/N=C/c1ccc([N+](=O)[O-])s1)c1ccncc1 | 12.7 µM
Cc1ccc(NC(=O)c2ccc3c(c2)OCCO3)cc1C | 4.16 µM
O=C(N/N=C/c1coc2ccc(Cl)cc2c1=O)c1cc(O)cc(O)c1 | 44.8 µM
Cc1nc2ccccc2n1/N=C/c1ccc([N+](=O)[O-])s1 | 2.14 µM
CC1c2[nH]c3ccccc3c2CCN1C(=O)Nc1ccccc1 (stereo not drawn) | 14 µM

Compound | IC50
Cn1c(C(=O)Nc2ccc3c(c2)OCCO3)cc2sccc21 | 7.59 µM
C=CCn1c(SCc2cc(=O)n3ccsc3n2)nc2cc(Cl)ccc2c1=O | 9.66 µM
C/C(=N\Nc1nc2ccccc2s1)c1cccs1 | 17 µM
Nc1ccc2nc(SCc3ccccc3F)sc2c1 | 20.6 µM
Cc1ccccc1[C@@]1(C)ON(c2ccccc2C(F)(F)F)C1=O | 3.74 µM
COc1cccc2c1C(=O)C=C(C)C2=O | 13.2 µM
COc1ccc(N2CCC(CNC(=S)Nc3ccc(C)cc3C)C2)cc1 (stereo not drawn) | 18.1 µM
Cc1[nH][nH]c(=O)c1C(c1ccc(-c2ccc(F)cc2)o1)c1c(C)[nH][nH]c1=O | 16.3 µM
NC(=S)N/N=C/c1coc2ccc(Br)cc2c1=O | 5.78 µM
COc1cccc(CNn2c(-c3cccc(C)c3)nc3ccccc3c2=O)c1O | 13 µM
O=c1oc(Cl)c(Cl)c2ccccc12 | 20.1 µM
Cc1ccc2[nH]cc(C(=O)CCl)c2c1 | 26.1 µM
O=C(NCCCc1ccccc1)c1c(O)nc2sccn2c1=O | 4.09 µM
Cc1ccc(S(=O)(=O)N[C@@H](Cc2ccccc2)C(=O)CCl)cc1 | 0.64 µM
Cn1c(-c2sc3ccccc3c2Cl)n[nH]c1=S | 5.74 µM
O=C(N/N=C/c1ccc(Br)s1)c1c[nH]c2ccccc12 | 13.1 µM
O=C(NC(=O)c1ccccc1F)OCc1ccc(Cl)cc1Cl | 15 µM
O=C1/C(=C/c2cccs2)COc2ccccc21 | 7.66 µM
c1ccc2[nH]c(CSc3nc4ccccc4o3)nc2c1 | 18.6 µM
O=C(Nc1ccc2nc(-c3ccccc3)[nH]c2c1)c1cccs1 | 3.08 µM
COc1ccc(C(=O)Nc2nc3ccccc3s2)c(OC)c1 | 7.13 µM
O=C(Nc1ncc([N+](=O)[O-])s1)c1ccc2c(c1)OCO2 | 15.8 µM
COc1ccc(OC)c(-c2csc(NC(=O)Cc3ccc(F)cc3)n2)c1 | 27.7 µM
COc1ccccc1C(=O)Nc1nnc(-c2ccc3c(c2)CCCC3)o1 | 14.7 µM
COn1c(=O)c(-c2cccs2)[n+]([O-])c2ccccc21 | 6.58 µM
C(=C\c1ccccc1)/C=N/Nc1nc2ccccc2[nH]1 | 38.7 µM

Compound | IC50
CCOC(=O)c1ccc(NC(=O)CSc2nc(=O)n3cccc(C)c3n2)cc1 | 53.6 µM
CCOc1nc2ccccc2cc1C=O | 1.69 µM
Clc1nssc1=Nc1nncs1 | 2.6 µM
Cc1ccc(-c2nc3ccccc3[nH]2)s1 | 16.4 µM
O=[N+]([O-])c1ccc(N/N=C/c2cccc(O)c2)cc1 | 6.08 µM
Cc1ccc2oc(C(Cl)(Cl)Cl)cc(=O)c2c1 | 8.7 µM
CC1CCc2c(sc3nc(C(C)(C)C)nc(N4CCN(C(=O)CCl)CC4)c23)C1 (stereo not drawn) | 23.3 µM
CCOC(=O)c1cccc(OC(=O)CCNC(=O)c2ccc(Cl)cc2)c1 | 26.9 µM
CCOC(=O)NNc1ccc2nonc2c1[N+](=O)[O-] | 10.3 µM
CC1=C(C)/C(=N/OC(=O)c2cccc([N+](=O)[O-])c2)C=CC1=O | 5.21 µM
O=C(N/N=C/c1coc2ccc(Cl)cc2c1=O)c1ccncc1 | 87.1 µM
CCN(CC)S(=O)(=O)c1ccc(C(=O)OCn2nnc3ccccc3c2=O)cc1 | > 100 µM (inactive)
Cc1ccc(S(=O)(=O)n2ccc(OC(=O)c3cccs3)n2)cc1 | 8.32 µM
O=C(Nc1ccc(Oc2cccc3ccccc23)cc1)c1ccco1 | 8.83 µM
C=C1CCc2c([nH]c3ccc(OCC(C)C)cc23)C1=O | 24.3 µM
COc1cccc(NC(=O)c2ccccc2)c1 | 3.42 µM
CC1(C)OC(=O)C(=Cc2ccc[nH]2)C(=O)O1 | 7.41 µM
O=C(CSc1cccc[n+]1[O-])CSc1cccc[n+]1[O-] | 6.94 µM
c1ccc(-c2nc(NCc3cccs3)c3ccccc3n2)cc1 | 14.3 µM
O=C(NCc1cccnc1)/C(=C\c1ccc(-c2ccc(Br)cc2)o1)S(=O)(=O)c1ccccc1 | 5.72 µM
Cc1csc2nc(O)c(C(=O)NCCCc3ccccc3)c(=O)n12 | 8.44 µM
N=c1c2c(-c3ccccc3)c(-c3ccccc3)n(Cc3ccco3)c2ncn1Cc1ccccc1 | 13.6 µM
Cc1ccc2occ(C(=O)c3ccco3)c(=O)c2c1 | 9.21 µM
COCCn1c(C)cc(C(=O)COC(=O)c2ccc([N+](=O)[O-])o2)c1C | 8.28 µM
COc1cccc(Nc2nc3ccc(OC)cc3s2)c1 | 11.2 µM
CCCc1nc2c(c(=O)c3ccccc3n2C)c(=O)n1C1CCCCCC1 | 23.2 µM

Compound | IC50
CC(C)Oc1cc(O)c2c(=O)c(-c3ccc(O)cc3)coc2c1 | 10.1 µM
O=Cc1ccccc1OCc1ccc2c(c1)OCO2 | 5.65 µM
Cc1ccc(-c2nnc(N3CCN(c4ccccn4)CC3)c3ccccc23)cc1 | 13.1 µM
Cn1c(=O)c(C(=O)Nc2ncccn2)c(O)c2ccccc21 | 4.78 µM
O=C(Nc1nccs1)c1ccc(Cl)s1 | 13.3 µM
Cc1nc2ccccc2c(=O)n1/N=C/c1cc(Br)ccc1O | 10.8 µM
O=C(Oc1cccc2c(O)cccc12)c1ccccc1 | 4.84 µM
Cc1ccc(Nc2nc(Cl)c(C=O)s2)cc1Cl | 3.45 µM
CC[C@@]1(c2ccccc2OC)ON(c2ccccc2C(F)(F)F)C1=O | 4.27 µM
CCOC(=O)Nc1ccc2c(c1)Nc1ccccc1S2 | 12.7 µM
Cc1ccn(-c2ccc(NC(=O)c3cccs3)cc2)n1 | 5.12 µM
O=[N+]([O-])c1cc(O)c2ncccc2c1 | 7.75 µM
Cc1ccccc1OCCCSc1nc2ccccc2[nH]1 | 6.45 µM
O=C(Nc1cccc(Br)c1)C1CCCC1 | 14.1 µM
O=C1c2ccccc2C(=O)N1c1nc(-c2cccs2)cs1 | 6.52 µM
Cc1occc1C(=O)N/N=C/C(Br)=C/c1ccccc1 | 11.5 µM
Cc1ccc(-c2nc(CNC(=O)c3cc(C)on3)cs2)cc1 | 19.8 µM
O=C(CSc1ccccc1)N/N=C/c1ccccc1O | 10.9 µM
O=C(NC(=S)NC(=O)c1ccccc1F)c1ccccc1F | 8.39 µM
CCN(CC)c1ccc(C(=O)Nc2cccc(F)c2)cc1 | 5.64 µM
NNC(=O)c1nc(-c2ccccc2)cc(-c2ccccc2)n1 | 12.5 µM
Cc1csc2nc(O)c(C(=O)NCCC3=CCCCC3)c(=O)n12 | 3.43 µM
COc1ccc(C(=O)N/N=C\c2coc3ccc(Cl)cc3c2=O)cc1 | 32.5 µM
O=Cc1cnc2ccccc2c1-c1ccccc1 | 9.53 µM
